The test system of test [1] is Dual specificity mitogen-activated protein kinase kinase 1 (Homo sapiens), Q02750 [S218D,S222D]. Briefly: (§1) Selectivity interaction (LanthaScreen Eu Kinase Binding Assay) EUB0001632a MAP2K1. Particulars: at 10 µM. (In general: TR-FRET usually uses a lanthanide donor and a delayed reading to cut background.)
In test [2] the target is Dual specificity mitogen-activated protein kinase kinase 1 (Homo sapiens, UniProt Q02750). Described as §1. Particulars: at 10 µM.
In test [3] the target is Calcium/calmodulin-dependent protein kinase type II subunit alpha (Homo sapiens, UniProt Q9UQM7). Briefly: Selectivity interaction (KinomeScan (DiscoverX)) EUB0000595a CAMK2A. Conditions: at 10 µM.
Chain of Calcium/calmodulin-dependent protein kinase type II subunit alpha (Q9UQM7 whole entry): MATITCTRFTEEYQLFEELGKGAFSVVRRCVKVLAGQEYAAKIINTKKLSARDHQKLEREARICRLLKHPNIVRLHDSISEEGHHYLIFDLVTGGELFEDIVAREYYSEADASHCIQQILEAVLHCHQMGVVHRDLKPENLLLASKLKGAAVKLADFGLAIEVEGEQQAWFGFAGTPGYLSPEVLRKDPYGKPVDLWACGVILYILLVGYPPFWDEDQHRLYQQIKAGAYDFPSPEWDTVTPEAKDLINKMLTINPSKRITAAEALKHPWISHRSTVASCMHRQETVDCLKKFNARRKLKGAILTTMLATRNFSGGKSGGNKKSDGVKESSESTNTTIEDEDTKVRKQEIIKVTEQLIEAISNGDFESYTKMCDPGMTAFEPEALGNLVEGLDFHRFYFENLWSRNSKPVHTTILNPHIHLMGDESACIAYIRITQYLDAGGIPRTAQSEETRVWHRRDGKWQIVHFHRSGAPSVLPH
Test [4] has as its target Calcium/calmodulin-dependent protein kinase type 1 (Homo sapiens) (UniProt Q14012). Briefly: Selectivity interaction (Kinase panel (Invitrogen)) EUB0000639a CAMK1. Particulars: at 200 nM.
Test [5] concerns the target Mitogen-activated protein kinase 9 (Homo sapiens, UniProt P45984). Briefly: Selectivity interaction (ProQinase) EUB0000171b MAPK9.
For test [6], the target named is T1, Ephrin type-B receptor 2 (Homo sapiens) (UniProt P29323).
T1 sequence (whole entry): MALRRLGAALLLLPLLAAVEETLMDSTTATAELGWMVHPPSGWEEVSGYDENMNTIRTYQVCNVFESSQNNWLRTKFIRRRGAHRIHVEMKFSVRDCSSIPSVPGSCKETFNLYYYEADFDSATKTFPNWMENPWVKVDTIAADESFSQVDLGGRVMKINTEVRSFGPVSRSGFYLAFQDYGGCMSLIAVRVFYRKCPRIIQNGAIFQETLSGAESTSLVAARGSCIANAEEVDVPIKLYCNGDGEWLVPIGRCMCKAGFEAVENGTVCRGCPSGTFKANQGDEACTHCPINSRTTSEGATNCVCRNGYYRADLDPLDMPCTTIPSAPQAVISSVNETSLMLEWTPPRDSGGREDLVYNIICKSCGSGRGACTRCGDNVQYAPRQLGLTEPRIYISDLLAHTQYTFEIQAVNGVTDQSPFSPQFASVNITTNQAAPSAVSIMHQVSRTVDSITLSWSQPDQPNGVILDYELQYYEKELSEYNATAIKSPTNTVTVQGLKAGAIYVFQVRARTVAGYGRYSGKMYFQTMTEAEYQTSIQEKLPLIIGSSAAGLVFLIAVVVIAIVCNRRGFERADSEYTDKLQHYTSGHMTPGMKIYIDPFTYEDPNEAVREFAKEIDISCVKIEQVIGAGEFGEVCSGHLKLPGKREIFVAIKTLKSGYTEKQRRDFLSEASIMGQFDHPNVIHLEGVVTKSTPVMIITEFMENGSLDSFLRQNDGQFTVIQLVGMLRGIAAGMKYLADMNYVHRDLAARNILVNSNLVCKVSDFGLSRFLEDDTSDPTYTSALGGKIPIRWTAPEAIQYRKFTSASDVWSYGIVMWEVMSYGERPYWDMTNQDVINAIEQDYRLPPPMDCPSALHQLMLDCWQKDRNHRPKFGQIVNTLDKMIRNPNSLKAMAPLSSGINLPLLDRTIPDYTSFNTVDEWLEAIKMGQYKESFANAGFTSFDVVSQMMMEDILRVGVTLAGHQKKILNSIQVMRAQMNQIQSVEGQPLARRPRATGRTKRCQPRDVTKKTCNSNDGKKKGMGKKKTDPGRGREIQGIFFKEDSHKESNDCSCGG
Briefly: Selectivity interaction (KinomeScan (DiscoverX)) EUB0000655a EPHB2. Particulars: at 10 µM.

Test [7] deals with T2, Ephrin type-B receptor 3 (Homo sapiens) (UniProt P54753).
T2 sequence (whole entry): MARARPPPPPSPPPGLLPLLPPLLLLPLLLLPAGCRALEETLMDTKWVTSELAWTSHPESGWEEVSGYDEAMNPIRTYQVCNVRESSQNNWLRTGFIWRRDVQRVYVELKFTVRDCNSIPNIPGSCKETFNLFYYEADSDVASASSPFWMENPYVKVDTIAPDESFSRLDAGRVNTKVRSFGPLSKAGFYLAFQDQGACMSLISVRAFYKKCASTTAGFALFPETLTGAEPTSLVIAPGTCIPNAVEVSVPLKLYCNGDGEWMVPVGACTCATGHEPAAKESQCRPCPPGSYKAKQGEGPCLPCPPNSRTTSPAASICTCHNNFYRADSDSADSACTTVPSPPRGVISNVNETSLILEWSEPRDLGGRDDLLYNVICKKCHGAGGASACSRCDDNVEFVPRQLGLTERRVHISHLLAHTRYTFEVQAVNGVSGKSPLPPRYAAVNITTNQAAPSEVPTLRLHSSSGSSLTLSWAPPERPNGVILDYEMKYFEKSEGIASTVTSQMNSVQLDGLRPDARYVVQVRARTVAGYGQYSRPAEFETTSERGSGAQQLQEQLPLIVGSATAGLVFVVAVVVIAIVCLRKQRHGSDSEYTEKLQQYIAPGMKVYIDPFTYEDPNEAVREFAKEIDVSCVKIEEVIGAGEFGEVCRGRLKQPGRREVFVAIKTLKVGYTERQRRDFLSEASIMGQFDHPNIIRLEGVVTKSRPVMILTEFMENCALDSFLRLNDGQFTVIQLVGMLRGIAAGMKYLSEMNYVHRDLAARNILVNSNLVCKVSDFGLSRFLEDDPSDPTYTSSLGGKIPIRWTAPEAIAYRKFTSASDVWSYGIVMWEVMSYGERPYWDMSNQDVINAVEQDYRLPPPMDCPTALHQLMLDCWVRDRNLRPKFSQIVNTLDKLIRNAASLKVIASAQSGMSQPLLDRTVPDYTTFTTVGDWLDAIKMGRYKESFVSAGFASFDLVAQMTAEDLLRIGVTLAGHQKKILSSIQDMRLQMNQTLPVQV
Briefly: Selectivity interaction (KinomeScan (DiscoverX)) EUB0000092b EPHB3. Conditions: at 10 µM.

In test [8] the target is T3, Serine/threonine-protein kinase Chk1 (Homo sapiens) (UniProt O14757).
T3 sequence (whole entry): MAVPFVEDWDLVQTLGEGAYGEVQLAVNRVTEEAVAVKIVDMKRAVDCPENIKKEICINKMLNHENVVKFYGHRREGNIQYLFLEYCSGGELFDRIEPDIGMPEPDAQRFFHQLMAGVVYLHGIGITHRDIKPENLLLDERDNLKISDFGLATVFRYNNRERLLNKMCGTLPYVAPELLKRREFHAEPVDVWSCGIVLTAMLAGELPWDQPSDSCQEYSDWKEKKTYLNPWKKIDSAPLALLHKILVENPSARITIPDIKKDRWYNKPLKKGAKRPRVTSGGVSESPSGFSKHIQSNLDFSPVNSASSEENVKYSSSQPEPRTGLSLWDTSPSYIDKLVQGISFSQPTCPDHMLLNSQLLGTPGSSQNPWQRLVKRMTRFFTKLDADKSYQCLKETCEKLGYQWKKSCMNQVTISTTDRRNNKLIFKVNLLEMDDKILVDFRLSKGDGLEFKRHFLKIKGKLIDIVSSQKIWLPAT
Briefly: Selectivity interaction (Kinase panel (KiNativ target engagement assay in Jurkat cells)) EUB0001635a CHEK1. Type of test: cell-based. Conditions: at 1 µM.

Chain of Mitogen-activated protein kinase 9 (P45984 whole entry, looked up): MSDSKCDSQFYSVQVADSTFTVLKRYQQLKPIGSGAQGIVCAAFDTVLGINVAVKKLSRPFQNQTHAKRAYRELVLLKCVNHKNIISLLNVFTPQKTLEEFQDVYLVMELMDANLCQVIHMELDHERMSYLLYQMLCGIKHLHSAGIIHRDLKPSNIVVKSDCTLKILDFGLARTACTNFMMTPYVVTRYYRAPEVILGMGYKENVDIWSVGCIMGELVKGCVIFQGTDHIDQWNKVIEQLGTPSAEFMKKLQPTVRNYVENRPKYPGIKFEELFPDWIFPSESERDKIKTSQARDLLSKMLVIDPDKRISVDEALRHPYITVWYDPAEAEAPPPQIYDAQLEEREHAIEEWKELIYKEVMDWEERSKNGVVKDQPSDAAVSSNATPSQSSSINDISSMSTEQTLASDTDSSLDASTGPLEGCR
Chain of Dual specificity mitogen-activated protein kinase kinase 1 (Homo sapiens), Q02750 [S218D,S222D] (Q02750 whole entry S218D/S222D): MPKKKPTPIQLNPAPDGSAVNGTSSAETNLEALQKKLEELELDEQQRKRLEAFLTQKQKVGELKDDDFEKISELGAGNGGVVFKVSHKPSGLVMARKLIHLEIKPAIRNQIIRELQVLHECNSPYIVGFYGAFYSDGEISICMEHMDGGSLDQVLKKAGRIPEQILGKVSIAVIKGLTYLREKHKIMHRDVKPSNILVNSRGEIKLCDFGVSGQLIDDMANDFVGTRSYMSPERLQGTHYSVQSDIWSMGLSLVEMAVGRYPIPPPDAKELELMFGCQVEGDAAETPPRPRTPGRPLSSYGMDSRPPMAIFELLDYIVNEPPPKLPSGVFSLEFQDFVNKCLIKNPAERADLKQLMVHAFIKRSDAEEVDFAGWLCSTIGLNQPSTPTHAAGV
Chain of Calcium/calmodulin-dependent protein kinase type 1 (Homo sapiens) (Q14012 whole entry, looked up): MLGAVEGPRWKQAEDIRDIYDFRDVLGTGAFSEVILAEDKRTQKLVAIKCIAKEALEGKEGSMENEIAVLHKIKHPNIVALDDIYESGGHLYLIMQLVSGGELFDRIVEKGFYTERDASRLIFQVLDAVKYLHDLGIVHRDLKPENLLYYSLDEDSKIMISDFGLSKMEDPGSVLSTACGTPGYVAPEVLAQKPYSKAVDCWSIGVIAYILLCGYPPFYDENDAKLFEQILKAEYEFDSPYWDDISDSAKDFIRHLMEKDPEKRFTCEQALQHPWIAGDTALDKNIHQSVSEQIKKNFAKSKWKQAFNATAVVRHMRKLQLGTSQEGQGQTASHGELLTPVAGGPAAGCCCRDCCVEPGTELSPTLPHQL
Chain of Dual specificity mitogen-activated protein kinase kinase 1 (Q02750 whole entry): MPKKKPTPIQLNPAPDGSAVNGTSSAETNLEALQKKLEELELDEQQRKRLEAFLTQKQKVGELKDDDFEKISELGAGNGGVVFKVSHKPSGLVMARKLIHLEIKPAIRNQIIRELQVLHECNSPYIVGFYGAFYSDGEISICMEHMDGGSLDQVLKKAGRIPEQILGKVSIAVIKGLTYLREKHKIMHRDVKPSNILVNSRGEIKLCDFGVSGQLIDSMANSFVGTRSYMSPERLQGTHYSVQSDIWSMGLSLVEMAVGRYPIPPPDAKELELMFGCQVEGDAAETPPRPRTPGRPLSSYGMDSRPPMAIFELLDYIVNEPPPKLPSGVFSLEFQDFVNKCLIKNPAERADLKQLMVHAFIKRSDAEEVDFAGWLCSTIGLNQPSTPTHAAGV

With `Cn1cc(-n2cnc3c(NCc4nc5cc(Cl)c(Cl)cc5[nH]4)nc(N4CCOCC4)nc32)cn1`, the % of inhibition in test [1] was -20.2%; in test [2] it was -15.4%.
Consider `COCC(=O)NC/C=C/c1ccc2ncnc(Nc3ccc(Oc4ccc(C)nc4)c(C)c3)c2c1` [CP-724714], for which the % of control in test [3] was 93%.
Turning to `CC[C@@H]1[C@H](F)C(=O)N[C@@H]1COc1nccc2cc(C(N)=O)c(OC)cc12` [ZIMLOVISERTIB], the % of inhibition in test [4] was -15.3%.
Take `C=CC(=O)Nc1cccc(C(=O)Nc2ccc(Nc3cc(-c4[nH]c(SC)nc4C)ccn3)cc2)c1`: the % of control in test [5] (at 1 µM) is 8%; in test [5] (at 5 µM), 1%.
`CN(C)CCOc1ccc(-c2nc(-c3ccncc3)c(-c3ccc4c(c3)CC/C4=N\O)[nH]2)cc1` came in with a % of control in test [6] of 98%.
`CCC(=O)N1CCN(c2ccc(-n3c(=O)ccc4cnc5ccc(-c6cnc7ccccc7c6)cc5c43)cc2C(F)(F)F)CC1`: the % of control in test [7] stood at 85%.
As to `C=CC(=O)Nc1ccc(C(=O)Nc2[nH]nc3c2CN(C(=O)N[C@H](CN(C)C)c2ccccc2)C3(C)C)cc1`, the % of engagement in test [8] (Selectivity number of off-targets 0.0, Selectivity number of targets 233.0, Source Knowledge https://www.sciencedirect.com/science/article/pii/S2451945619300674?via%3Dihub) was determined as 5.4%; in test [8] it was 16.4%.

Values taken from ChEMBL document CHEMBL5465560, “Selectivity Literature for EUbOPEN Chemogenomic Library” (2024).
